# Source: US20060264362A1, “Method of modulating smooth muscle cell functioning by modulating sphingosine kinase mediated signalling” (Medvet Science Pty. Ltd., priority 2003, published 2006)
# “Also recorded” adds a separate entry of the source.
# Assays:
# resistance arteries [1] = assay: SNP (NO)-induced dilations in preconstricted resistance arteries; format: cell-based, hamsters; conditions: for preconstriction level (diameter): 1 μmol/L S1P or 0.3 μmol/L NE
# Excerpt: (§1) The care of the animals and the experimental procedures were in accordance with German animal protection laws. The preparation of the vessels and the technique of calcium (fura 2) and diameter measurements were previously described (Bolz et al., 1999, supra; Bolz S S, Fisslthaler B, Pieperhoff S et al., FASEB J. 2000;14:255-260). Briefly, RA (maximal outer diameter 180-250 μm) from gracilis muscle of female hamsters were cannulated with micropipettes and studied at 45 mmHg transmural pressure. Fura 2 was alternatingly excited at 340 or 380 nm. The ratio F340nm/F380nm at 510 nm was calculated after subtraction of the background fluorescence (obtained after fura 2-quenching with 8 mmol/L MnCl2). Diameters were simultaneously recorded by videomicroscopy at wavelengths>610 nm to avoid interference with fura 2-measurements.
# Additionally, dose-response curves for SNP were obtained in arteries preconstricted by 0.3 μmmol/L NE under control conditions, in the presence of the Rho kinase inhibitor Y27632 (1 μmol/L) or in N19RhoA-transfected arteries.
# (§2) Dilations are expressed as “% of maximum dilation”=[(diaVD−diaNE)/(diamax−diaNE)]×100, with diaVD and diaNE representing steady state diameters 2 min after administration of […] and diamax being the maximal diameter obtained in Ca^2+-free 1 mmol/L EGTA-containing MOPS buffer.
# resistance arteries [2] = assay: Ca2+-dependent dilations induced by ACh or NS1619; format: cell-based, hamsters
# Excerpt: as §1, §2
# [3] = test system: depolarized resistance arteries; assay: Apparent Ca2+-sensitivity of depolarized resistance arteries (120 mmol/L K+, Ca2+ex 0-3 mmol/L); format: cell-based, hamsters; conditions: for effect on NO (SNP)-induced Ca^2+-desensitization: 10 μmol/L SNP, ODQ 1 μmol/L, calyculin A 120 nmol/L, S1P 10 nmol/L or RhoA^Ala-188 transfection
# Excerpt: as §1
# To transfect plasmids containing C3 transferase or the respective mutated RhoA sequences (N19RhoA, RhoA^Ala-188) into VSMCs, arteries were incubated for 18-21 h in a artery culture system (Bolz et al., 2000, supra) with culture medium containing antibiotics, the transfectant Effectene® (16 μl/ml) and 5 μg of the respective plasmid. Unspecific effects of the transfection procedure were assessed by comparing vascular responses of non-transfected RA and arteries transfected with green fluorescent protein (GFP).
# The apparent Ca^2+-sensitivity of the arteries was assessed by stepwise increasing the extracellular Ca^2+ concentration (Ca^2+, 0-3 mmol/L) around the arteries kept in depolarizing solution (120 mmol/L K^+). Depolarization-dependent opening of voltage-gated calcium channels allowed increases in Ca^2+ ex to be reproducibly followed by increases in VSMC [Ca^2+]i (Bolz et al., 2000, supra). The Ca^2+-sensitivity was assessed under control conditions, in the presence of SNP and in the combined presence of SNP and the respective modulating substance or protein (ODQ, calyculin A, S1P, RhoA^Ala-188).
# resistance arteries [4] = assay: S1P-induced vasoconstriction of resistance arteries; format: cell-based, hamsters; conditions: for effect on S1P-induced constrictions: S1P <1 μmol/L
# Excerpt: as §1
# The technique to transfect intact C3 transferase protein using Trans LT was previously described (Bolz et al., 2000, supra).
# Changes in diameter and [Ca^2+]i were continuously recorded in 70 vessels from 41 animals. All vessels studied developed spontaneous tone (9.6±1% of maximal diameter). The viability of each vessel was assessed by its constriction to NE (0.3 μmol/L) and a dilation>80% in response to 1 μmol/L ACh.
# RhoA = RhoA translocation (immunostaining); format: cell-based, hamsters; conditions: 10 nmol/L S1P, 2 min
# Experimental: (§3) Arteries were fixed with 3.7% formaldehyde, permeabilized with 0.3% Triton X-100, blocked with 1% BSA and incubated with the primary antibody (MLCP: rabbit anti-mouse, 1:200, Covance; RhoA: mouse monoclonal, 1:200, Santa Cruz Biotechnology). FITC-labelled goat anti-rabbit or donkey anti-mouse (1:200, each) were used as secondary antibodies. Images were obtained using a Zeiss LSM410 confocal microscope equipped with a Kr/Ar laser and a 40×/1.2 W water immersion objective.
# [5] = test system: isolated resistance arteries; assay: Pressure-induced myogenic response (reversal of initial distension), 45 to 110 mmHg; format: cell-based, syrian hamsters
# Excerpt: The preparation of the vessels, the technique of calcium and diameter measurements (Bolz, S. S., de Wit, C., Pohl, U. (1999) Br J Pharmacol 128:124-134) as well as the artery culture and transfection method (Bolz, S. S., Pieperhoff, S., de Wit, C. et al. (2000) Am J Physiol Heart Circ Physiol 279:H1434-H1439) were previously described in more detail. Briefly, segments of small resistance arteries (maximal diameter 213±3 μm, n+116) were excised from the gracilis muscle of female syrian hamsters, cannulated with glass micropipettes and perfused with culture medium at a transmural pressure of 45 mmHg. for selective transfection of smooth muscle cells, 60 μl/mL transfection reagent (Effectene, Qiagen, Germany) and 5 μg of the respective DNA plasmid were added to the organ bath for 20-22 h.
# (§4) After termination of the culture period resistance arteries were washed with MOPS-buffered salt solution and transferred to an inverted microscope. Incubation with fura 2 (2 h at 37° C.) from the abluminal side allowed selective determination of smooth muscle Ca^2+ within the vascular wall. Simultaneous measurements of smooth muscle intracellular Ca^2+ and diameter were performed as described previously (Bolz, S. S., de Wit, C., Pohl, U. (1999) supra). In all 116 arteries included in the study, smooth muscle and endothelial function was assessed by testing all resistance arteries for their constrictor response to norepinephrine (NE 0.3 μmol/L) and their dilator response to acetylcholine (ACh, 1 μmol/L). […] Measurements were performed at 37° C.
# Myogenic responses were described as % reversal of initial distension (RID) calculated as RID=((diadistended−diatime)/(diadistended−diarest))×100, with diatime being the actual diameter of the artery at a given time point after increase in transmural pressure.
# (§5) To compare Ca^2+i and diameter changes over time after application of pressure, a non-linear regression analysis was employed. Briefly, the goodness of the fit to a Gompertz function was calculated for every individual curve at first and then for pooled data sets.
# MYPT1 = assay: Translocation of MLCP myosin-binding subunit MYPT1 (immunofluorescence, western blot); format: cell-based, hamster
# Experimental: as §3
# Tissue samples of hamster aorta were quick-frozen in liquid nitrogen and homogenized. Cytosolic and particulate fractions were separated by centrifugation of the homogenate at 100.000 g (Beckman Coulter, Optima Max-E). Pellets were resuspended in lysis buffer plus 1% Triton-X 100. Protein-matched samples were electrophoresed by SDS-PAGE (7%), transferred to nitrocellulose membranes (Amersham), and subjected to immunostaining using a polyclonal primary antibody (rabbit anti-mouse, 1:500). An HRP-labelled secondary antibody (goat anti-rabbit, 1:10000, Santa Cruz) was used with ECLplus (Amersham) to visualize the signal.
# [6] = test system: isolated resistance arteries; assay: Resting tone in isolated, transfected resistance arteries; format: cell-based, syrian hamsters; conditions: 10 nmol/L
# Excerpt: The preparation of the vessels, the technique of calcium and diameter measurements (Bolz, S. S., de Wit, C., Pohl, U. (1999) Br J Pharmacol 128:124-134) as well as the artery culture and transfection method (Bolz, S. S., Pieperhoff, S., de Wit, C. et al. (2000) Am J Physiol Heart Circ Physiol 279:H1434-H1439) were previously described in more detail. […]
# After termination of the culture period resistance arteries were washed with MOPS-buffered salt solution and transferred to an inverted microscope. […] In all 116 arteries included in the study, smooth muscle and endothelial function was assessed by testing all resistance arteries for their constrictor response to norepinephrine (NE 0.3 μmol/L) and their dilator response to acetylcholine (ACh, 1 μmol/L). […]
# Tone was calculated as % of maximal diameter [tone(% of diamax)=((diamax−diarest)/diamax)×100] that was determined at the end of every experiment in Ca^2+-free solution under stimulation with 1 μmol/L ACh.
# smooth muscle Ca^2+ = assay: Pressure-induced increases in smooth muscle Ca2+ (fura 2); format: cell-based, syrian hamsters; conditions: inhibition of RhoA/Rho kinase pathway
# Experimental: as §4, §5
# [7] = S1P 0.001 μmol/L plus named inhibitor
# [8] = S1P 0.01 μmol/L plus named inhibitor
# [9] = S1P 0.1 μmol/L plus named inhibitor
# [10] = S1P 1 μmol/L plus named inhibitor
compound,measurement,setting,value
"NC[C@H](O)c1ccc(O)c(O)c1 [NE, Norepinephrine]",preconstriction level (diameter),resistance arteries [1],128±2 μm
charybdotoxin,effect on dilations by ACh (+L-NA/indomethacin) and NS1619,resistance arteries [2],abolished
COC[C@@H]([C@H](O)[C@H](O)C(=O)NCC[C@H](C)c1nc(/C=C/C[C@@H]2O[C@]3(C[C@@H](O)[C@@H]2C)O[C@H]([C@H](C[C@H](O)[C@H](C)[C@H](O)[C@H](C)/C=C(C)/C(C)=C/C=C/C(C)=C\C#N)OC)[C@H](OP(=O)(O)O)C3(C)C)co1)N(C)C [calyculin A],effect on NO (SNP)-induced Ca^2+-desensitization,[3],reversed
same,effect on NO (SNP)-induced Ca^2+-desensitization,[3]; listed as Calyculin A,almost abolished
C3 transferase,S1P-induced vasoconstriction after inhibition of RhoA or Rho kinase,resistance arteries [4]; [7],0.7 ± 0.3 % of diamax
same,S1P-induced vasoconstriction after inhibition of RhoA or Rho kinase,resistance arteries [4]; [8],0.5 ± 0.6 % of diamax
same,S1P-induced vasoconstriction after inhibition of RhoA or Rho kinase,resistance arteries [4]; [9],−2.8 ± 0.7 % of diamax
same,S1P-induced vasoconstriction after inhibition of RhoA or Rho kinase,resistance arteries [4]; [10],−18.1 ± 2.9 % of diamax
same,effect on S1P-induced constrictions,resistance arteries [4],abolished
same,Ca^2+/diameter curve (Ca^2+-sensitivity of the contractile apparatus),[3]; C3 transferase-transfected arteries,significantly shifted to the right; also recorded: significantly desensitized
"CCCCCCCCCCCCC/C=C/[C@@H](O)[C@@H](N)COP(=O)(O)O [S1P, sphingosine-1-phosphate]",RhoA localisation after stimulation,RhoA,translocated to the membrane; also recorded: translocation to the membrane
same,myogenic response with exogenous S1P,[5]; 10 nmol/L S1P,144±11 % RID
same,"S1P-induced vasoconstriction, Control",resistance arteries [4]; S1P 0.001 μmol/L,−0.2 ± 0.4 % of diamax
same,"S1P-induced vasoconstriction, Control",resistance arteries [4]; S1P 0.01 μmol/L,−7.7 ± 2.4 % of diamax
same,"S1P-induced vasoconstriction, Control",resistance arteries [4]; S1P 0.1 μmol/L,−27.0 ± 3.4 % of diamax
same,"S1P-induced vasoconstriction, Control",resistance arteries [4]; S1P 1 μmol/L,−45.0 ± 2.0 % of diamax
same,translocation of MYPT1 to the smooth muscle cell plasmamembrane,"MYPT1; S1P, 2 min",induced a translocation
same,effect on NO (SNP)-induced Ca^2+-desensitization,[3],abolished; also recorded: blocked
same,effect of S1P per se on Ca^2+-sensitivity,"[3]; S1P 10 nmol/L, Ca^2+ex 0.25-0.75 mmol/L",increased the Ca^2+-sensitivity only in a medium concentration range
same,constriction induced by S1P itself,[6],no significant constrictions
same,preconstriction level (diameter),resistance arteries [1],130±10 μm
same,reduction of SNP-induced dilations after preconstriction with S1P vs NE,"resistance arteries [1]; SNP 1 μmol/L, preconstriction 1 μmol/L S1P vs 0.3 μmol/L NE",64±8%
O=c1onc2cnc3ccccc3n12 [ODQ],effect on NO (SNP)-induced Ca^2+-desensitization,[3],blocked; also recorded: completely reversed
C[C@@H](N)[C@H]1CC[C@H](C(=O)Nc2ccncc2)CC1 [Y27632],pressure-induced increases in Ca^2+,smooth muscle Ca^2+,19±3%
same,S1P-augmented myogenic response after blocker,[5]; 10 nmol/L S1P plus Rho kinase inhibitor,3±1 % RID
same,"myogenic response, reversal of initial distension (RID)","[5]; pressure 45 to 110 mmHg, steady state after 4 min",1±2 % RID
same,S1P-induced vasoconstriction after inhibition of RhoA or Rho kinase,resistance arteries [4]; [7],0.1 ± 0.4 % of diamax
same,S1P-induced vasoconstriction after inhibition of RhoA or Rho kinase,resistance arteries [4]; [8],−0.4 ± 0.2 % of diamax
same,S1P-induced vasoconstriction after inhibition of RhoA or Rho kinase,resistance arteries [4]; [9],−3.4 ± 1.8 % of diamax
same,S1P-induced vasoconstriction after inhibition of RhoA or Rho kinase,resistance arteries [4]; [10],−20.0 ± 7.2 % of diamax
same,effect on S1P-induced constrictions,resistance arteries [4],abolished
same,S1P-induced MYPT1 translocation after RhoA/Rho kinase inhibition,MYPT1; N19RhoA-transfected or Y27632 (1 μmol/L)-pretreated arteries,absent
same,effect on NO-induced dilations,"resistance arteries [1]; NE 0.3 μmol/L-preconstricted, Y27632 1 μmol/L or N19RhoA overexpression",significantly augmented
same,diameter at NE-induced tone,"resistance arteries [1]; NE 0.3 μmol/L, Y27632 1 μmol/L",115±5 μm
same,resting diameter,resistance arteries [1]; Y27632 1 μmol/L,195±18 μm
